Holding throughout (format): in vivo
One data set concerns stress induced ulcer. The data set can be described thus: Test Method 1: Effect on Stress Induced Ulcer. The settings on record: Rattus norvegicus; SD male rats, oral, 15 minutes before restraint and water immersion (24° C., 18 hours); from doses-ulcer inhibition rates curve. The protocol:
1. Test Procedures The method of Takagi et al (Jap. J. Pharmacol., 18, 9 (1968)) was followed. SD male rats each weighing from 180 to 200 g (8 weeks of age and 6 to 8 rats in one group) were fasted for 24 hours, followed by oral administration of the above test compounds which had been suspended in 1% CMC aqueous solution. 15 minutes later, the animals were put into a stress cage which was then immersed in a water tank at 24° C. at the depth of the […] of the animals. After being immersed for 18 hours, the animals were killed under etherization to excise the stomachs. Each of the stomachs was injected with 12 ml of 1% formalin aqueous solution and then immersed in 1% formalin aqueous solution for 15 minutes. The stomach was incised along its upper curvature and measured by an anatomic microscopy for the major axis (mm) of each ulcer that had developed on the gastric mucous membrane. The total major axis (mm) was taken as the ulcer factor. The ulcer inhibition rate was obtained from the following equation. The ED50 values were obtained from the doses-ulcer inhibition rates curve. [formula] where l is the ulcer factor of a group without the test compounds administered, and m is the ulcer factor of a group having such compounds administered.

For data set [1], the system named is indomethacin induced ulcer. Briefly: Test Method 3: Effect on Indomethacin Induced Ulcer. The settings on record: Rattus norvegicus; SD male rats, oral, 15 minutes before s.c. indomethacin (30 mg/kg); stomachs removed after 5 hours. How it is done:
The method of Okabe et al (Jap. J. Pharmacol., 29, 670 (1979)) was followed.
SD male rats each weighing from 180 to 200 g (8 weeks of age and 6 to 8 in one group) were fasted for 24 hours, followed by oral administration of the test compounds which had been suspended in 1% CMC aqueous solution, and 15 minutes afterwards, by subcutaneous administration of indomethacin (30 mg/kg of weight) which had been dissolved in 3% sodium bicarbonate aqueous solution. After lapse of 5 hours, the animals were killed under etherization to take out the stomachs. Each of the stomachs was injected with 12 ml of 1% formalin aqueous solution containing 0.1% pontamine sky blue and then immersed in 1% formalin aqueous solution for 15 minutes. The ulcer factor and ulcer inhibition rate were determined in a manner similar to Test Method 1. The ED50 values were obtained from the dosesulcer inhibition rates curve.

Another data set has as its system ddY male mice. Briefly: Test Method 4: Acute Toxicity-Minimum Lethal Dose (MLD). The settings on record: oral, observation over 7 days. From the text:
ddY Male mice each weighing from 20 to 22 g (4 weeks of age and 5 mice in one group) were fasted overnight, followed by oral administration of the test compounds which had been suspended in 1% CMC aqueous solution. Observation was made as to the death of the animals over 7 days to thereby determine the minimum lethal doses (MLD).

The subject of a further data set is ethanol induced ulcer. The data set can be described thus: Test Method 2: Effect on Ethanol Induced Ulcer. The settings on record: Rattus norvegicus; SD male rats, oral, 30 minutes before oral ethanol (99.5%, 1 ml); stomachs removed one hour later. The protocol:
1. Test Procedures The method of Robert (Gastroenterology, 77, 433 (1979)) was followed. SD male rats each weighing from 180 to 200 g (8 weeks of age and 6 to 8 rats in one group) were fasted for 24 hours, followed by oral administration of the test compounds which had been suspended in 1% CMC aqueous solution. After lapse of 30 minutes, 1 ml of ethanol (99.5%) was orally administered. One hour later, the animals were killed under etherization to remove the stomachs. Each of the stomachs was injected with 12 ml of 1% formalin aqueous solution and then immersed in 1% formalin aqueous solution for 15 minutes. The ulcer factor and ulcer inhibition rate were determined in a manner similar to Test Method 1. The ED50 values were obtained from the doses-ulcer inhibition rates curve.

We go through 2 compounds from patent US4732916A, “Novel guanidinomethylbenzoic acid derivatives” (Kabushiki Kaisha Med-Creat, priority 1985, dated 1988).

Broadly, the ED50 is the dose at which the effect has come halfway, by size or by number of responders. Lower therefore signals an effect at a small dose.

Bounds are passed on as bounds.

For the compound `N=C(N)NCc1ccc(C(=O)Nc2ccccc2)cc1` [Compound A, N-phenyl-4-guanidinomethylbenzamide], the ED50 with stress induced ulcer came to 34 mg/kg; in data set [1], 58 mg/kg; in the data set with ethanol induced ulcer, 35 mg/kg. Moreover, the “MLD, acute toxicity test (minimum lethal dose)” value in the data set with ddY male mice is more than 3000 mg/kg.
Turning to `Cl.N=C(N)NC[C@H]1CC[C@H](C(=O)Nc2ccccc2)CC1` [Compound B, N-(phenyl)-trans-4-guanidinomethylcyclohexanecarboxamide hydrochloride], the ED50 is 143 mg/kg in the data set with stress induced ulcer, 73 mg/kg in data set [1] and 220 mg/kg with ethanol induced ulcer. Further, in the data set with ddY male mice, the “MLD, acute toxicity test (minimum lethal dose)” value is given as less than 1000 mg/kg.
